Test results taken from patent publication US11642336B2, “5-HT2A agonists for use in treatment of depression” (priority 2019, dated 2023).
Where a name gives a salt, the structure may show the parent alone. Read-outs that look alike come from different tables or passages of the source. Marks after values point to notes of the source that are not given here.

Tests used:
5-HT2C = 5-HT2C (Homo sapiens (Human), UniProt P28335); assay: Ca2+/Fluo-4 assay, stable h5-HT2C-HEK293 cell line; assay type: cell-based; settings: for EC50: agonist potency, n = 3-4; for 5-HT2C Rmax ± S.E.M: % of the Rmax of 5-HT;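 for all read-outs here: Agonist-induced intracellular Ca2+ rise read by Fluo-4 fluorescence in HEK293 cells stably expressing the human 5-HT2C receptor, each compound run in duplicate on three or more occasions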
5-HT2C, sequence (P28335 whole entry, looked up): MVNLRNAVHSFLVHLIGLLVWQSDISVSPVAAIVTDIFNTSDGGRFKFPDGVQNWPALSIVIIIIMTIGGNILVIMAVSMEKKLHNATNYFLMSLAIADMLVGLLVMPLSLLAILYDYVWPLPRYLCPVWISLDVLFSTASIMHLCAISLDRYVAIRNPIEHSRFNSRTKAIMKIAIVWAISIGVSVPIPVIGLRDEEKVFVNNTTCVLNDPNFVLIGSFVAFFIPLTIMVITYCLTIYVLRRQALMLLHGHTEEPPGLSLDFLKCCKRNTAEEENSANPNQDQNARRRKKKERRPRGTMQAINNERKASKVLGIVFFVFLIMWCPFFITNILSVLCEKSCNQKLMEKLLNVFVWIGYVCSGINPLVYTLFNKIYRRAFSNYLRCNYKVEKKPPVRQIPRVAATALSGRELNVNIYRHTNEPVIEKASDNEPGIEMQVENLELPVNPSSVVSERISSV
Protocol: The functional properties of the compounds were characterised at stable HEK293 cell lines stably expressing the human 5-HT2A receptor or human 5-HT2C receptor in the Ca^2+/Fluo-4 assay essentially as previously described.^10 Briefly, the cells were split into poly-D-lysine-coated black 96-well plates with clear bottoms (6×10^4 cells/well). The following day the culture medium was aspirated and the cells were incubated in 50 μl assay buffer [Hanks Buffered Saline Solution containing 20 mM HEPES, 1 mM CaCl2, 1 mM MgCl2, 2.5 mM probenecid, pH 7.4] supplemented with 6 mM Fluo-4/AM at 37° C. for 1 hour. Next, the buffer was aspirated, the cells were washed once with 100 μl assay buffer, and then 100 μl assay buffer was added to the cells (in the antagonist experiments the compound was added at this point). […] The compounds were characterized in duplicate at least three times at each cell line.

human 5-HT2A = human 5-HT2A (Homo sapiens (Human), UniProt P28223); assay: cell-based; assay type: cell-based; settings: for 5-HT2A Rmax ± S.E.M: % of the Rmax of 5-HT; for EC50: agonist potency, n = 3-4; for Selectivity EC50 5-HT2C/EC50 5-HT2A: Ca2+/Fluo-4 assay, bounds are conservative estimates
[1] = read-out: 5-HT2A [pEC50 ± S.E.M.] (converted)
[2] = read-out: 5-HT2C [pEC50 ± S.E.M.] (converted)

SMILES | 5-HT2A Rmax ± S.E.M (human 5-HT2A) | EC50 (human 5-HT2A; read-out: 5-HT2A EC50) | EC50 (human 5-HT2A; [1]) | Selectivity EC50 5-HT2C/EC50 5-HT2A (human 5-HT2A) | also measured
COc1cc(C(F)(F)F)c(OC)cc1[C@H]1CCCN(C)C1 [Compound 60, (R)3-(2,5-dimethoxy-4-(trifluoromethyl)phenyl)-1-methylpiperidine] | 53 ± 8% | 1100 nM | – | – | 5-HT2C agonist activity (n.a./w.a.) (5-HT2C; tested up to 50 μM): w.a.
CCOc1cc([C@H]2CCCNC2)c(OC)cc1C(F)(F)F.Cl [Compound 19, (R)-3-(5-ethoxy-2-methoxy-4-(trifluoromethyl)phenyl)piperidine hydrochloride] | 86 ± 6% | 320 nM | 316 nM | – | –
CCCCc1cc(OC)c([C@H]2CCCNC2)cc1OC [Compound 56, (R)-3-(4-butyl-2,5-dimethoxyphenyl)piperidine hydrochloride] | – | 340 nM | 347 nM | – | EC50 (5-HT2C; read-out: 5-HT2C EC50): 1600 nM
COc1cc(C(F)(F)F)c(OC)cc1[C@@H]1CCNC1 [Compound 6, (S)-3-(2,5-dimethoxy-4-(trifluoromethyl)phenyl)pyrrolidine] | 35 ± 4% | 5.4 nM | – | 3.5 | 5-HT2C Rmax ± S.E.M (5-HT2C): 28 ± 2%; EC50 (5-HT2C; [2]): 19.1 nM
COc1cc([C@H]2CCCNC2)c(OC)cc1SC [Compound 17, (R)-3-(2,5-dimethoxy-4-(methylthio)phenyl)piperidine hydrochloride] | – | 180 nM | 178 nM | – | EC50 (5-HT2C; read-out: 5-HT2C EC50): 2300 nM; EC50 (5-HT2C; [2]): 2340 nM
COc1cc(C(F)(F)F)c(OC)cc1[C@H]1CCCNC1 [Compound 7, (R)-3-(2,5-Dimethoxy-4-(trifluoromethyl)phenyl)piperidine hydrochloride] | – | – | – | – | EC50 (5-HT2C; read-out: 5-HT2C EC50): 860 nM
CCSc1cc([C@H]2CCCNC2)c(OC)cc1C(F)(F)F.Cl [Compound 46, (R)-3-(2-methoxy-5-(ethylthio)-4-(trifluoromethyl)phenyl)piperidine hydrochloride] | 97 ± 2% | 150 nM | 145 nM | 7.4 | 5-HT2C Rmax ± S.E.M (5-HT2C): 53 ± 5%; EC50 (5-HT2C; read-out: 5-HT2C EC50): 1100 nM; EC50 (5-HT2C; [2]): 1070 nM
CCOc1cc(CC)c(OC)cc1[C@H]1CCCNC1 [Compound 42, (R)-3-(2-ethoxy-4-ethyl-5-methoxyphenyl)piperidine] | 80 ± 9% | 1500 nM | – | >10^e | –
CCOc1cc([C@H]2CCCNC2)c(OC)cc1CC.Cl [Compound 33, (R)-3-(5-ethoxy-4-ethyl-2-methoxyphenyl)piperidine hydrochloride] | 89 ± 4% | 1100 nM | 1120 nM | >10^e | –
COc1cc([C@H]2CCCNC2)c(OC)cc1SC(C)C [Compound 25, (R)-3-(4-(isopropylthio)-2,5-dimethoxyphenyl)piperidine] | – | 290 nM | – | – | –
CCOc1cc(C(F)(F)F)c(OCC)cc1[C@H]1CCCNC1.Cl [Compound 21, (R)-3-(2,5-diethoxy-4-(trifluoromethyl)phenyl)piperidine hydrochloride] | 69 ± 4% | 3000 nM | – | >10^e | –
COc1cc([C@H]2CCCNC2)ccc1C(F)(F)F.Cl [Compound 48, (R)-3-(3-methoxy-4-(trifluoromethyl)phenyl)piperidine hydrochloride] | 68 ± 7% | 1800 nM | – | >50^e | –
COc1cc([C@H]2CCCNC2)c(OC)cc1I [Compound 13, (R)-3-(4-Iodo-2,5-dimethoxyphenyl)piperidine] | – | 260 nM | 263 nM | – | –
COc1cc(CCNCc2ccccc2O)c(OC)cc1C#N [drawing 23, reference compound] | – | – | – | – | EC50 (5-HT2C; 5-HT2C EC50 (nM)): 47 nM; 5-HT2C Rmax ± S.E.M (5-HT2C): 96 ± 7%
CCOc1cc([C@H]2CCCNC2)c(OCC)cc1CC.Cl [Compound 40, (R)-3-(2,5-diethoxy-4-ethylphenyl)piperidine hydrochloride] | ~61-74^c % | 7000 to 10000 nM | – | >3^e | –
